# Source: PubChem BioAssay (NCI)
#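 How tested: cells in 96-well plates exposed to compound for 48 hours at five concentrations. TGI denotes the concentration required for complete inhibition of growth.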
# Columns and labels:
# Assay in all cases: inhibition of tumour cell growth, NCI panel, 48 h
# SNB-19 CNS = test system: SNB-19 CNS
# HCT-15 colon = test system: HCT-15 colon
# SW-620 colon = test system: SW-620 colon
# SN12C renal = test system: SN12C renal
# RXF 393 renal = test system: RXF 393 renal
# IGROV1 ovarian = test system: IGROV1 ovarian
# SNB-78 CNS = test system: SNB-78 CNS
# UO-31 renal = test system: UO-31 renal
# A549 NSCLC = test system: A549 NSCLC
# OVCAR-4 ovarian = test system: OVCAR-4 ovarian
# KM20L2 colon = test system: KM20L2 colon
# ACHN renal = test system: ACHN renal
# NCI-H460 lung = test system: NCI-H460 lung
# LXFL 529 NSCLC = test system: LXFL 529 NSCLC
# SK-MEL-5 melanoma = test system: SK-MEL-5 melanoma
# M14 melanoma = test system: M14 melanoma
# DMS 273 small cell lung = test system: DMS 273 small cell lung
# SK-MEL-28 melanoma = test system: SK-MEL-28 melanoma
# SF-539 CNS = test system: SF-539 CNS
# CCRF-CEM leukemia = test system: CCRF-CEM leukemia
# HCC-2998 colon = test system: HCC-2998 colon
# NCI-H23 lung = test system: NCI-H23 lung
# UACC-257 melanoma = test system: UACC-257 melanoma
# CAKI-1 renal = test system: CAKI-1 renal
# DLD-1 colon = test system: DLD-1 colon
# OVCAR-8 ovarian = test system: OVCAR-8 ovarian
# HCT-116 colon = test system: HCT-116 colon
# SF-295 CNS = test system: SF-295 CNS
# SK-OV-3 ovarian = test system: SK-OV-3 ovarian
# MOLT-4 leukemia = test system: MOLT-4 leukemia
# SNB-75 CNS = test system: SNB-75 CNS
# 786-0 renal = test system: 786-0 renal
# NCI-H226 lung = test system: NCI-H226 lung
# K-562 leukemia = test system: K-562 leukemia
# DMS 114 small cell lung = test system: DMS 114 small cell lung
# HOP-62 NSCLC = test system: HOP-62 NSCLC
# SF-268 CNS = test system: SF-268 CNS
# KM12 colon = test system: KM12 colon
# NCI-H522 lung = test system: NCI-H522 lung
# HT29 colon = test system: HT29 colon
# OVCAR-5 ovarian = test system: OVCAR-5 ovarian
# M19-MEL melanoma = test system: M19-MEL melanoma
# OVCAR-3 ovarian = test system: OVCAR-3 ovarian
# HL-60(TB) leukemia = test system: HL-60(TB) leukemia
# HOP-18 NSCLC = test system: HOP-18 NSCLC
# TK-10 renal = test system: TK-10 renal
# COLO 205 colon = test system: COLO 205 colon
# U251 CNS = test system: U251 CNS
# LOX IMVI melanoma = test system: LOX IMVI melanoma
# A498 renal = test system: A498 renal
# MALME-3M melanoma = test system: MALME-3M melanoma
# SK-MEL-2 melanoma = test system: SK-MEL-2 melanoma
# UACC-62 melanoma = test system: UACC-62 melanoma
# RPMI-8226 leukemia = test system: RPMI-8226 leukemia
# HOP-92 NSCLC = test system: HOP-92 NSCLC
# EKVX NSCLC = test system: EKVX NSCLC
smiles,measurement,setting,value
CC(=O)Nc1ccc(-c2nnc(SCC(=O)Nc3ccc(Cl)cc3Cl)o2)cc1,TGI,SNB-19 CNS,51.9 µM
same,TGI,HCT-15 colon,> 100 µM
same,TGI,SW-620 colon,> 100 µM
same,TGI,SN12C renal,57.5 µM
same,TGI,RXF 393 renal,66.3 µM
same,TGI,IGROV1 ovarian,> 100 µM
same,TGI,SNB-78 CNS,> 100 µM
same,TGI,UO-31 renal,> 100 µM
same,TGI,A549 NSCLC,> 100 µM
same,TGI,OVCAR-4 ovarian,> 100 µM
same,TGI,KM20L2 colon,> 100 µM
same,TGI,ACHN renal,> 100 µM
same,TGI,NCI-H460 lung,> 100 µM
same,TGI,LXFL 529 NSCLC,54.7 µM
same,TGI,SK-MEL-5 melanoma,37.4 µM
same,TGI,M14 melanoma,> 100 µM
same,TGI,DMS 273 small cell lung,> 100 µM
same,TGI,SK-MEL-28 melanoma,> 100 µM
same,TGI,SF-539 CNS,84.4 µM
same,TGI,CCRF-CEM leukemia,> 100 µM
same,TGI,HCC-2998 colon,> 100 µM
same,TGI,NCI-H23 lung,> 100 µM
same,TGI,UACC-257 melanoma,> 100 µM
same,TGI,CAKI-1 renal,> 100 µM
same,TGI,DLD-1 colon,> 100 µM
same,TGI,OVCAR-8 ovarian,> 100 µM
same,TGI,HCT-116 colon,> 100 µM
same,TGI,SF-295 CNS,> 100 µM
same,TGI,SK-OV-3 ovarian,> 100 µM
same,TGI,MOLT-4 leukemia,> 100 µM
same,TGI,SNB-75 CNS,96.6 µM
same,TGI,786-0 renal,44.3 µM
same,TGI,NCI-H226 lung,99 µM
same,TGI,K-562 leukemia,> 100 µM
same,TGI,DMS 114 small cell lung,38.7 µM
same,TGI,HOP-62 NSCLC,> 100 µM
same,TGI,SF-268 CNS,> 100 µM
same,TGI,KM12 colon,> 100 µM
same,TGI,NCI-H522 lung,48.3 µM
same,TGI,HT29 colon,> 100 µM
same,TGI,OVCAR-5 ovarian,> 100 µM
same,TGI,M19-MEL melanoma,> 100 µM
same,TGI,OVCAR-3 ovarian,57.9 µM
same,TGI,HL-60(TB) leukemia,> 100 µM
same,TGI,HOP-18 NSCLC,> 100 µM
same,TGI,TK-10 renal,> 100 µM
same,TGI,COLO 205 colon,68.3 µM
same,TGI,U251 CNS,38.7 µM
same,TGI,LOX IMVI melanoma,> 100 µM
same,TGI,A498 renal,> 100 µM
same,TGI,MALME-3M melanoma,60.3 µM
same,TGI,SK-MEL-2 melanoma,> 100 µM
CCOC(=O)N1CCN(P(=O)(Nc2ccc3nc(NC(=O)OC)[nH]c3c2)Oc2ccccc2)CC1 (stereo not given),TGI,HCT-15 colon,> 100 µM
same,TGI,SW-620 colon,> 100 µM
same,TGI,SN12C renal,> 100 µM
same,TGI,RXF 393 renal,> 100 µM
same,TGI,IGROV1 ovarian,> 100 µM
same,TGI,SNB-78 CNS,> 100 µM
same,TGI,UO-31 renal,> 100 µM
same,TGI,A549 NSCLC,> 100 µM
same,TGI,OVCAR-4 ovarian,> 100 µM
same,TGI,KM20L2 colon,> 100 µM
same,TGI,ACHN renal,> 100 µM
same,TGI,NCI-H460 lung,> 100 µM
same,TGI,LXFL 529 NSCLC,> 100 µM
same,TGI,M14 melanoma,> 100 µM
same,TGI,DMS 273 small cell lung,> 100 µM
same,TGI,SK-MEL-28 melanoma,> 100 µM
same,TGI,CCRF-CEM leukemia,> 100 µM
same,TGI,HCC-2998 colon,> 100 µM
same,TGI,NCI-H23 lung,> 100 µM
same,TGI,UACC-257 melanoma,> 100 µM
same,TGI,CAKI-1 renal,> 100 µM
same,TGI,DLD-1 colon,> 100 µM
same,TGI,UACC-62 melanoma,> 100 µM
same,TGI,OVCAR-8 ovarian,> 100 µM
same,TGI,HCT-116 colon,> 100 µM
same,TGI,SK-OV-3 ovarian,> 100 µM
same,TGI,MOLT-4 leukemia,> 100 µM
same,TGI,SNB-75 CNS,> 100 µM
same,TGI,786-0 renal,> 100 µM
same,TGI,NCI-H226 lung,> 100 µM
same,TGI,RPMI-8226 leukemia,> 100 µM
same,TGI,K-562 leukemia,> 100 µM
same,TGI,DMS 114 small cell lung,> 100 µM
same,TGI,SF-268 CNS,> 100 µM
same,TGI,KM12 colon,> 100 µM
same,TGI,NCI-H522 lung,> 100 µM
same,TGI,HT29 colon,> 100 µM
same,TGI,OVCAR-5 ovarian,> 100 µM
same,TGI,M19-MEL melanoma,> 100 µM
same,TGI,OVCAR-3 ovarian,> 100 µM
same,TGI,HOP-92 NSCLC,> 100 µM
same,TGI,HL-60(TB) leukemia,> 100 µM
same,TGI,HOP-18 NSCLC,> 100 µM
same,TGI,TK-10 renal,> 100 µM
same,TGI,COLO 205 colon,> 100 µM
same,TGI,U251 CNS,> 100 µM
same,TGI,LOX IMVI melanoma,> 100 µM
same,TGI,A498 renal,> 100 µM
same,TGI,MALME-3M melanoma,> 100 µM
same,TGI,SK-MEL-2 melanoma,> 100 µM
CC(=O)OC12c3ccccc3C1CCCC21OCCCO1 (stereo not given),TGI,SNB-19 CNS,> 100 µM
same,TGI,HCT-15 colon,> 100 µM
same,TGI,SW-620 colon,> 100 µM
same,TGI,SN12C renal,> 100 µM
same,TGI,RXF 393 renal,> 100 µM
same,TGI,IGROV1 ovarian,> 100 µM
same,TGI,SNB-78 CNS,> 100 µM
same,TGI,UO-31 renal,> 100 µM
same,TGI,A549 NSCLC,> 100 µM
same,TGI,OVCAR-4 ovarian,> 100 µM
same,TGI,KM20L2 colon,> 100 µM
same,TGI,ACHN renal,> 100 µM
same,TGI,NCI-H460 lung,> 100 µM
same,TGI,LXFL 529 NSCLC,> 100 µM
same,TGI,M14 melanoma,> 100 µM
same,TGI,DMS 273 small cell lung,> 100 µM
same,TGI,SK-MEL-28 melanoma,> 100 µM
same,TGI,SF-539 CNS,> 100 µM
same,TGI,CCRF-CEM leukemia,> 100 µM
same,TGI,HCC-2998 colon,> 100 µM
same,TGI,NCI-H23 lung,> 100 µM
same,TGI,UACC-257 melanoma,> 100 µM
same,TGI,CAKI-1 renal,> 100 µM
same,TGI,DLD-1 colon,> 100 µM
same,TGI,UACC-62 melanoma,> 100 µM
same,TGI,OVCAR-8 ovarian,> 100 µM
same,TGI,HCT-116 colon,> 100 µM
same,TGI,SF-295 CNS,> 100 µM
same,TGI,SK-OV-3 ovarian,> 100 µM
same,TGI,MOLT-4 leukemia,> 100 µM
same,TGI,SNB-75 CNS,> 100 µM
same,TGI,786-0 renal,> 100 µM
same,TGI,EKVX NSCLC,> 100 µM
same,TGI,NCI-H226 lung,> 100 µM
same,TGI,RPMI-8226 leukemia,> 100 µM
same,TGI,K-562 leukemia,> 100 µM
same,TGI,DMS 114 small cell lung,> 100 µM
same,TGI,HOP-62 NSCLC,> 100 µM
same,TGI,SF-268 CNS,> 100 µM
same,TGI,KM12 colon,> 100 µM
same,TGI,NCI-H522 lung,> 100 µM
same,TGI,HT29 colon,> 100 µM
same,TGI,OVCAR-5 ovarian,> 100 µM
same,TGI,M19-MEL melanoma,> 100 µM
same,TGI,OVCAR-3 ovarian,> 100 µM
same,TGI,HOP-18 NSCLC,> 100 µM
same,TGI,TK-10 renal,> 100 µM
same,TGI,COLO 205 colon,> 100 µM
same,TGI,U251 CNS,> 100 µM
same,TGI,LOX IMVI melanoma,> 100 µM
same,TGI,A498 renal,> 100 µM
same,TGI,MALME-3M melanoma,> 100 µM
same,TGI,SK-MEL-2 melanoma,> 100 µM
